The record followed here is publication PMC4699463 (2015).

Common to all, as to assay: F-neo fluorescence displacement
Test [1] deals with hsa-miR 142 (RNA, miRNA) CAUAAAGUAGAAAGCACUACUUU/AGUAGUGCUUUCUACUUUAUGUU
The conditions noted are these: 25 mM KCl; 10 mM sodium phosphate, 0.05 mM EDTA, pH 6.5; tracer 100 nM F-neo, 100 nM miRNA; per site.

Test [2] deals with hsa-miR 335 (RNA, miRNA) UCAAGAGCAAUAACGAAAAAUGUUU/ACAUUUUUCGUUAUUGCUCUUGAUU
The conditions noted are these: 25 mM KCl; 10 mM sodium phosphate, 0.05 mM EDTA, pH 6.5; tracer 100 nM F-neo, 100 nM miRNA; per site.

The test system of test [3] is hsa-miR 504 (RNA, miRNA) AGACCCUGGUCUGCACUCUAUCUU/GAUAGAGUGCAGACCAGGGUCUUU
Conditions: 25 mM KCl; 10 mM sodium phosphate, 0.05 mM EDTA, pH 6.5; tracer 100 nM F-neo, 50 nM miRNA; per site.

Test [4] concerns pre-hsa-miR 504 (RNA, miRNA) GCUGCUGUUGGGAGACCCUGGUCUGCACUCUAUCUGUAUUCUUACUGAAGGGAGUGCAGGGCAGGGUUUCCCAUACAGAGGGC
Conditions: 25 mM KCl; 10 mM sodium phosphate, 0.05 mM EDTA, pH 6.5; tracer 100 nM F-neo, 16.7 nM pre-miRNA; per site.

In general, IC50 refers to the concentration needed to halve the response being measured. Higher therefore signals weaker potency. In the case of `NC[C@@H]1O[C@H](O[C@H]2[C@@H](O)[C@H](O[C@@H]3[C@@H](O)[C@H](N)C[C@H](N)[C@H]3O[C@H]3O[C@H](CN)[C@@H](O)[C@H](O)[C@H]3N)O[C@@H]2CO)[C@H](N)[C@@H](O)[C@@H]1O`, the IC50 in test [1] stood at 95.7 ± 5.6 nM; in test [2], 117.4 ± 8.1 nM; in test [3], 70.3 ± 1.6 nM; in test [4], 56.2 ± 2.3 nM.
